The results in this text go back to patent US5635593A (priority 1995, dated 1997).

For test [1], the target named is T1, BK2 receptor (Cavia porcellus, UniProt O70526).
T1 construct: tested for activity on guinea pig ileum in vitro on the standard tissue bath/strain gauge system; from tissue; host or cells: guinea pig ileum
T1 sequence (O70526 1-372): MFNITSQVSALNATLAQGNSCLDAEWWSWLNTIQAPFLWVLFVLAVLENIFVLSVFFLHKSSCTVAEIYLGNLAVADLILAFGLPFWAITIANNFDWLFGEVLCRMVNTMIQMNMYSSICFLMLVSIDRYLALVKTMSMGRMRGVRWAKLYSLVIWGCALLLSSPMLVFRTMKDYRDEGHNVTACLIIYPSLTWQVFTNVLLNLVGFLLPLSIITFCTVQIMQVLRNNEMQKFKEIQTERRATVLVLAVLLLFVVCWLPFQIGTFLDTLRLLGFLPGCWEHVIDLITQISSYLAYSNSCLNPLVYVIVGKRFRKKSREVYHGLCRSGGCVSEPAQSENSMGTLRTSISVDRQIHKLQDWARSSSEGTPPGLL
The experiment in a line: guinea-pig ileum (GPI) in vitro, antagonism of BK. The protocol: (§1) Thus, in vitro studies were performed on standard assay systems, namely, guinea-pig ileum (GPI), rat uterus (RU) and rabbit jugular vein (RJV). […] The potency of each compound was assessed as a pA2 value according to the method of Arunlakshana & Schild, Br. J. Pharmacol. Chemother., 14:48-58 (1959). The pA2 can be defined as the negative logarithm of the molar concentration of the antagonist in the presence of which the potency of the agonist is reduced two-fold, i.e., twice the amount of agonist is required to produce a given response in the presence of, than in the absence of, the antagonist. A high potency of antagonism is indicated by a high pA2 value. i.e., a low concentration of antagonist is effective.
The percentage recovery (% Rec) was also determined for compounds with respect to each assay.
The Cys-modified monomers and the resultant dimers were tested for activity on guinea pig ileum in vitro on the standard tissue bath/strain gauge system as before.

In a further test the target is T2, BK2 -receptor (Rattus norvegicus, UniProt P25023).
T2 construct: guinea-pig ileum (GPI), rat uterus (RU) and rabbit jugular vein (RJV); from tissue; host or cells: rat uterus
T2 sequence (P25023 1-396): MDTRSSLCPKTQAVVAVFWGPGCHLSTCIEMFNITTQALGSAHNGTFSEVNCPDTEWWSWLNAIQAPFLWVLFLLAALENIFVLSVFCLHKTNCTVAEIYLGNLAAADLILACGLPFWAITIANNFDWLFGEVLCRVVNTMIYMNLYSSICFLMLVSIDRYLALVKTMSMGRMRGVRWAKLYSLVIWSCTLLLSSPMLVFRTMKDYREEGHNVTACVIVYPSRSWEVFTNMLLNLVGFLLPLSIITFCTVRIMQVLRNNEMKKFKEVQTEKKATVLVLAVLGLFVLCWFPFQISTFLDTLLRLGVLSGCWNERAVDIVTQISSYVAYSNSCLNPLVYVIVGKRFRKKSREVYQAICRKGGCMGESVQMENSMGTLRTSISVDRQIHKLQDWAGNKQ
The experiment in a line: rat uterus (RU) in vitro, antagonism of BK. As to conditions: for % REC rat uterus: percentage recovery after washing; for pA2 rat uterus (BK2): against BK.

Test [2] has as its target T3, BK1 receptor (Oryctolagus cuniculus, UniProt P48748).
T3 sequence (P48748 1-352): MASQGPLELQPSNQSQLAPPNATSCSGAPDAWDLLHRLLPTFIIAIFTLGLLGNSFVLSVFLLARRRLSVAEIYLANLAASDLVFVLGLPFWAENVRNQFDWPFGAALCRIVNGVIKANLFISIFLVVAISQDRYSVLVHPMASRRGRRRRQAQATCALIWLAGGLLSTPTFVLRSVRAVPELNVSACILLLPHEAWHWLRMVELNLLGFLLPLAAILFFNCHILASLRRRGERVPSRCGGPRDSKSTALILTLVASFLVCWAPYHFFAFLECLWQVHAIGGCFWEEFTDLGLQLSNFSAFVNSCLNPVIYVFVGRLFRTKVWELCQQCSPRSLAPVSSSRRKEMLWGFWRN
The test can be described thus: blood pressure response to BK1 agonist in LPS-pretreated rabbits. It counts as in vivo, rabbit. Further details: from tissue; host or cells: whole animal (rabbit, LPS-pretreated), blood pressure response; key to observed antagonist activity BK1, 1 / observed antagonist activity BK1, 3 / observed antagonist activity BK1, 10: +: complete blockade of the blood pressure response to the appropriate agonist; ±: partial blockade; -: no observable effect at the dose indicated. As to conditions: rabbits given LPS (10 μg) 20 hours before; for observed antagonist activity BK1, 1: 1 μg kg^-1 min^-1; for observed antagonist activity BK1, 3: 3 μg kg^-1 min^-1; for observed antagonist activity BK1, 10: 10 μg kg^-1 min^-1. The text has this: (§2) That heterodimeric constructs block the activities attributable to two different receptor populations simultaneously when administered to an intact animal has been known using a standard assay of BK2 and BK1 receptor activity (see, deBlois, Bouthillier, and Marceau, Brit. J. Pharm., 103, 1057-1066, 1991). In normal rabbits, no changes in systemic arterial blood pressure can be detected in response to challenges with BK1 receptor agonists. There is, however, a predictable and reproducible response to BK2 agonists constituatively present. After stimulation with LPS BK1 receptor activity will develop over time such that profound responses to doses of BK1 agonists that were previously inconsequential in nature are observed after a 3-4 hour period. Responses to BK2 agonists are unchanged in these animals. At this point, one can test directly the ability to block both BK1 and BK2 mediated reductions in systemic blood pressure simultaneously with a heterodimeric antagonist.
(§3) FIGS. 8a, b and c comprise actual blood pressure traces from a series of experiments designed to illustrate the ability of a representative heterodimer (CP-0364) to block both BK1 - and BK2 - mediated hypotensive responses simultaneously.
(§4) The expected antagonist activity is based on the data summarized in Tables K and L. The in vivo experimental data reported are qualitative measurements of antagonist activity at three different doses (1, 3 and 10 μg kg^-1 min^-1) in rabbits given a sub-lethal dose of LPS (10 μg), 20 hours before initiation of the experiment.

The target in test [3] is T4, BK2 receptor (Oryctolagus cuniculus, UniProt Q28642).
T4 construct: from tissue; host or cells: whole animal (rabbit, LPS-pretreated), blood pressure response
T4 sequence (Q28642 1-367): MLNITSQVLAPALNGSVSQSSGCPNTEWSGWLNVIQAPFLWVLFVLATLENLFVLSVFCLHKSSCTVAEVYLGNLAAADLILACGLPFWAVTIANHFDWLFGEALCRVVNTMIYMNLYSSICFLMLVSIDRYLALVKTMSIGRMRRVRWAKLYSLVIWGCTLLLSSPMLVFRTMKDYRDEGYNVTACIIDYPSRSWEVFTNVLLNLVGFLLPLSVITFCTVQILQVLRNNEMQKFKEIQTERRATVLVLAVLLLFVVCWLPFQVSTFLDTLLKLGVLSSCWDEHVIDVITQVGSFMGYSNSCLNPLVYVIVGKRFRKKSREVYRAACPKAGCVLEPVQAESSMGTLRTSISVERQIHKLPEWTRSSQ
The test can be described thus: blood pressure response to BK2 agonist in LPS-pretreated rabbits. Further details: key to observed antagonist activity BK2, 1 / observed antagonist activity BK2, 3 / observed antagonist activity BK2, 10: +: complete blockade of the blood pressure response to the appropriate agonist; ±: partial blockade; -: no observable effect at the dose indicated. Particulars: rabbits given LPS (10 μg) 20 hours before; for observed antagonist activity BK2, 1: 1 μg kg^-1 min^-1; for observed antagonist activity BK2, 3: 3 μg kg^-1 min^-1. It counts as in vivo, rabbit.
Excerpt: as §2, §3, §4

The target of test [4] is T3, BK1 receptor. The experiment in a line: rabbit aorta in vitro, reversal of des-Arg^9 -BK contraction. Also on record: on rabbit aorta (BK1 -receptor) in vitro; from tissue; host or cells: rabbit aorta. As to conditions: negative log of molar concentration causing 50% reversal of des-Arg^9 -BK (10^-7 M) contraction. The protocol:
Each antagonist was then added, in a cumulative fashion, on top of the contraction and the negative log of the molar concentration of the antagonist causing a 50% reversal (IC50) of the […] measured.

Test [5] deals with T4, BK2 receptor. The test can be described thus: rabbit jugular vein (RJV) in vitro, antagonism of BK. As to conditions: percentage recovery after washing. Here is the method:
as §1
The percentage recovery (% Rec) was also determined for compounds with respect to each assay. Percentage recovery is a measure of the duration of action, the lower the percentage recovery value, the greater the duration of action of the compound.

Structures are written as SMILES. Peptide text beside a SMILES is read from it.

On to `CC(C)C[C@H](NC(=O)[C@@H](Cc1ccccc1)NC(=O)[C@H](CO)NC(=O)[C@H](Cc1ccccc1)NC(=O)CNC(=O)[C@@H]1C[C@@H](O)CN1C(=O)[C@@H]1CCCN1C(=O)[C@H](CCCNC(=N)N)NC(=O)[C@H](N)CSC1CC(=O)N(CCCCCCN2C(=O)CC(SC[C@@H](N)C(=O)N[C@@H](CCCNC(=N)N)C(=O)N3CCC[C@H]3C(=O)N3C[C@H](O)C[C@H]3C(=O)NCC(=O)N[C@@H](Cc3ccccc3)C(=O)N[C@@H](CO)C(=O)N[C@H](Cc3ccccc3)C(=O)N[C@@H](CC(C)C)C(=O)N[C@@H](CCCNC(=N)N)C(=O)O)C2=O)C1=O)C(=O)N[C@@H](CCCNC(=N)N)C(=O)O` (stereo partly drawn) [CP-0161] (HELM PEPTIDE1{[dC].R.P.[Hyp].G.F.S.[dF].L.R}|PEPTIDE2{[dC].R.P.[Hyp].G.F.S.[dF].L.R}|CHEM1{[O=C1CC([*:1])C(=O)N1CCCCCCN1C(=O)CC([*:2])C1=O]}$PEPTIDE1,CHEM1,1:R3-1:R1|PEPTIDE2,CHEM1,1:R3-1:R2$$$V2.0), for which, on BK2 receptor [1] (against BK, read-out: pA2 guinea pig ileum (converted)), the Kb is 316 nM. The “% REC rat uterus” value at BK2 -receptor is 100%.
`CC(C)C[C@H](NC(=O)[C@@H](Cc1ccccc1)NC(=O)[C@H](CO)NC(=O)[C@H](Cc1ccccc1)NC(=O)CNC(=O)[C@@H]1C[C@@H](O)CN1C(=O)[C@@H]1CCCN1C(=O)[C@H](CSC1CC(=O)N(CCCCCCN2C(=O)CC(SC[C@H](NC(=O)[C@H](Cc3ccccc3)NC(=O)CNC(=O)[C@@H]3C[C@@H](O)CN3C(=O)[C@@H]3CCCN3C(=O)[C@H](CCCNC(=N)N)NC(=O)[C@H](N)CCCNC(=N)N)C(=O)N[C@H](Cc3ccccc3)C(=O)N[C@@H](CC(C)C)C(=O)N[C@@H](CCCNC(=N)N)C(=O)O)C2=O)C1=O)NC(=O)[C@H](N)CCCNC(=N)N)C(=O)O` (stereo partly drawn) [CP-0386] (HELM PEPTIDE1{[dR].R.P.[Hyp].G.F.C.[dF].L.R}|PEPTIDE2{[dR].C.P.[Hyp].G.F.S.[dF].L}|CHEM1{[O=C1CC([*:1])C(=O)N1CCCCCCN1C(=O)CC([*:2])C1=O]}$PEPTIDE1,CHEM1,7:R3-1:R1|PEPTIDE2,CHEM1,2:R3-1:R2$$$V2.0; N-terminus and C-terminus assumed): on BK1 receptor [2], the “observed antagonist activity BK1, 1” value is “+”; the “observed antagonist activity BK1, 3” value is on record as “+”; the “observed antagonist activity BK1, 10” value is listed as “+”. The “pA2 rat uterus (BK2)” value at BK2 -receptor was found to be 7.6 ± 0.1. Besides, at BK2 receptor [3], the “observed antagonist activity BK2, 1” value is reported as “+” and the “observed antagonist activity BK2, 3” value was “+”. Besides, the “observed antagonist activity BK2, 10” value on BK2 receptor [3] (10 μg kg^-1 min^-1) is “+”. Besides, the “BK1 rabbit aorta IC50” value at BK1 receptor [4] was 7.1 ± 0.2.
For `N=C(N)NCCC[C@@H](N)C(=O)N[C@@H](CCCNC(=N)N)C(=O)N1CCC[C@H]1C(=O)N1C[C@H](O)C[C@H]1C(=O)NCC(=O)N[C@@H](Cc1ccccc1)C(=O)N[C@@H](CO)C(=O)N1Cc2ccccc2C[C@@H]1C(=O)N1[C@H](C(=O)O)C[C@@H]2CCCC[C@@H]21` [CP-0267, D R--R--P--J--G--F--S--D Tic--Oic] (HELM PEPTIDE1{[dR].R.P.[Hyp].G.F.S.[O=C([C@H]1Cc2ccccc2CN1[*:1])[*:2]].[O=C(O)[C@@H]1C[C@@H]2CCCC[C@@H]2N1[*:1]]}$$$$V2.0; N-terminus and C-terminus assumed), on BK1 receptor [2], the “observed antagonist activity BK1, 1” value is “-”; the “observed antagonist activity BK1, 3” value was “-”; the “observed antagonist activity BK1, 10” value was “+”. In addition, the “pA2 rat uterus (BK2)” value on BK2 -receptor amounted to 5.7 ± 0.1. On BK2 receptor [3], the “observed antagonist activity BK2, 1” value is listed as “-” and the “observed antagonist activity BK2, 3” value is listed as “-”. At BK1 receptor [4], the “BK1 rabbit aorta IC50” value stood at 7.5 ± 0.2.
For the compound `CC(C)C[C@H](NC(=O)[C@@H](Cc1ccccc1)NC(=O)[C@H](CSC1CC(=O)N(CCCCCCN2C(=O)CC(SC[C@H](NC(=O)[C@H](Cc3ccccc3)NC(=O)CNC(=O)[C@@H]3C[C@@H](O)CN3C(=O)[C@@H]3CCCN3C(=O)[C@H](CCCNC(=N)N)NC(=O)[C@H](N)CCCNC(=N)N)C(=O)N[C@H](Cc3ccccc3)C(=O)N[C@@H](CC(C)C)C(=O)N[C@@H](CCCNC(=N)N)C(=O)O)C2=O)C1=O)NC(=O)[C@H](Cc1ccccc1)NC(=O)CNC(=O)[C@@H]1C[C@@H](O)CN1C(=O)[C@@H]1CCCN1C(=O)[C@H](CCCNC(=N)N)NC(=O)[C@H](N)CCCNC(=N)N)C(=O)N[C@@H](CCCNC(=N)N)C(=O)O` (stereo partly drawn) [CP-0127] (HELM PEPTIDE1{[dR].R.P.[Hyp].G.F.C.[dF].L.R}|PEPTIDE2{[dR].R.P.[Hyp].G.F.C.[dF].L.R}|CHEM1{[O=C1CC([*:1])C(=O)N1CCCCCCN1C(=O)CC([*:2])C1=O]}$PEPTIDE1,CHEM1,7:R3-1:R1|PEPTIDE2,CHEM1,7:R3-1:R2$$$V2.0), at BK2 receptor [1] (against BK), the “pA2 guinea pig ileum” value was found to be 7.7. Also, the “% REC GPI” value on BK2 receptor [1] (percentage recovery after washing) is reported as 100%. Moreover, the “% REC rat uterus” value at BK2 -receptor was found to be 50%. Besides, the “% REC RJV” value at BK2 receptor [5] turned out to be 10%.
